How the values were obtained:
Assay type in all cases: cell-based
[1] = tested on: induced resistance-related genes; experiment: qRT-PCR expression of induced resistance genes in pine tree callus, overall statement; details: 200 µg/mℓ
Procedure: (§1) For in vitro analysis of induced resistance, the expression of PR genes and other plant defense-related genes was determined, which are evolved in various defense mechanisms including induced resistance. The primers of sixteen induced resistance-related genes of pine tree used in this invention were listed in the below and elongation factor_1 alpha were used as a reference gene. [Table 4] The primer list of defense resistance-related genes
(§2) After the treatment with 200 µg / mℓ of candidates of the selected induced resistance material, expression of the induced resistance-related gene in pine callus was determined by qRT-PCR using the primer pairs of defense resistance-related genes in Table 4. As a candidate group of an induced resistance material in pine tree, acibenzolar-S-methyl (ASM), TDL (Tiadinil), ITL (Isotianil), PBZ (Probenzole), AZO (Azoxystrobin), VMA (Validamycin A), MeJA (Methyl jasmonate), BABA (DL-3-aminobutyric acid), 2,3-BDO (2,3-Butanediol), GABA (r-Aminobutyric acid), glucan (Glucan), ER (Ergosterol), and AZA (Azelaic acid) were used. For the in vitro analysis of the expression of induced resistance gene in pine callus, the selected induced resistance materials were applied with 500 µℓ of LM liquid medium on a surface of pine tree callus (100 mg) in 12-well microplate to give final concentration of 200 µg/mℓ. Then, the callus surface was sufficiently reacted for 24 hours with the candidate of pine tree induced resistance material by shaking at 50 rpm in a 25 °C shaking incubator under dark condition. RNAs were extracted from the callus after completion of the reaction with an induced resistance material, followed by synthesis of cDNAs. Then, by carrying out qRT-PCR, the expression of induced resistance genes was determined. [Table 5] Expression of induced resistance gene in pine tree callus by TDL, PBZ, ASM, ITL, AZO, VMA, glucan, and AZA

[2] = tested on: Extensin; experiment: qRT-PCR expression of induced resistance gene in pine tree callus; details: 200 µg/mℓ, 24 hours
Procedure, shortened: (§3)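 Pine callus (100 mg) in LM liquid medium treated with candidate inducers at 200 µg/mℓ final, applied to the surface or sprayed, shaken 50 rpm at 25 °C in the dark for 24 h (acibenzolar-S-methyl also 1, 7 or 14 days). Gene expression by qRT-PCR on callus RNA, with elongation factor_1 alpha as reference.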

[3] = tested on: PR_1b family; experiment: as above; details: 200 µg/mℓ, 24 hours
Procedure, shortened: as §3

[4] = tested on: PR_10 family; experiment: as above; details: 200 µg/mℓ, 24 hours
Procedure, shortened: as §3

[5] = tested on: PR_5 family; experiment: as above; details: 200 µg/mℓ, 24 hours
Procedure, shortened: as §3

[6] = tested on: Cytochrome_P450; experiment: as above; details: 200 µg/mℓ, 24 hours
Procedure: as §1, with “[Table 4]” left out
as §2, with “determined.” for “determined. [Table 5] Expression of induced resistance gene in pine tree callus by TDL, PBZ, ASM, ITL, AZO, VMA, glucan, and AZA”
Thus, the following tests were carried out using acibenzolar-S-methyl only. Expression of the induced resistance genes at different culture time after the chemical treatment was examined. For the in vitro assay, LM medium containing pine tree callus was treated with acibenzolar-S-methyl at concentration of 200 µg / mℓ, followed by reaction for 1 day, 7 days, or 14 days in a 25°C shaking incubator under dark condition. RNAs were extracted from the callus after the reaction followed by synthesis of cDNAs. Then, by carrying out qRT-PCR, the expression of the induced resistance genes was determined. Depending on reaction time after the treatment, i.e., after 1 day, 7 days, or 14 days, the expression of the obtained induced resistance genes was examined. […]
For the surface treatment (spraying treatment) of pine tree callus, 100 mg of the pine tree callus were dunked in 500 µℓ LM liquid medium and 500 µℓ of 400 µg/mℓ acibenzolar-S-methyl were sprayed (i.e., sprayed 5 times, 100 µℓ for each spraying, 200 µg/mℓ) on the callus surface. Then, the pine callus sprayed with acibenzolar-S-methyl was reacted for 24 hours by shaking at 50 rpm in a 25°C shaking incubator under dark condition. After the completion of the 24-hour reaction, RNAs were extracted from the callus followed by synthesis of cDNAs. Then, by carrying out qRT-PCR, expression of the induced resistance gene was determined.

Structure (SMILES)	expression of induced resistance-related genes is induced overall [1]	Expression of induced resistance gene, Extensin [2]	Expression of induced resistance gene, PR_1b family [3]	Expression of induced resistance gene, PR_10 family [4]	Expression of induced resistance gene, PR_5 family [5]	Expression of induced resistance gene, Cytochrome_P450 [6]
NCCCC(=O)O [GABA, r-Aminobutyric acid]	≥ 2 times	1.83	1.78	1.57	3.78	2.41
N#Cc1ccccc1NC(=O)c1snc(Cl)c1Cl [ITL, Isotianil]	–	1.39	1.77	1	0.95	0.98
CC/C=C\CC1C(=O)CCC1CC(=O)OC (centres unmarked) [MeJA, Methyl jasmonate]	–	0.93	0.5	1.34	0.95	0.3
C=CCOC1=NS(=O)(=O)c2ccccc21 [PBZ, Probenzole]	–	1.62	0.26	2.08	1.99	1.06
Cc1ccc(NC(=O)c2snnc2C)cc1Cl [TDL, Tiadinil]	–	1.05	1.05	1.19	1.33	0.91
OCC1=C[C@@H](N[C@H]2C[C@H](CO)[C@@H](O[C@H]3O[C@@H](CO)[C@H](O)[C@@H](O)[C@@H]3O)[C@H](O)[C@H]2O)[C@H](O)[C@@H](O)[C@@H]1O [VMA, Validamycin A]	≥ 2 times	0.66	0.73	1.56	4.66	1.17

Reference: patent EP3685668B1, “COMPOSITION COMPRISING ACIBENZOLAR-S-METHYL AS EFFECTIVE INGREDIENT FOR CONTROLLING BURSAPHELENCHUS XYLOPHILUS DISEASE AND METHOD FOR CONTROLLING BURSAPHELENCHUS XYLOPHILUS USING SAME” (Industry Foundation of Chonnam National University, priority 2017, dated 2019)
